# Measurements taken from patent US7449470B2, “Substituted pyrimidines as ligands of adenosine receptors” (Universiteit Leiden, priority 2003, dated 2008).
# Biological target: T1, human adenosine A1 receptor (Homo sapiens, UniProt P30542)
# T1 construct: expressed in transfected cells; host or cells: CHO cells
# T1 sequence (P30542 1-326): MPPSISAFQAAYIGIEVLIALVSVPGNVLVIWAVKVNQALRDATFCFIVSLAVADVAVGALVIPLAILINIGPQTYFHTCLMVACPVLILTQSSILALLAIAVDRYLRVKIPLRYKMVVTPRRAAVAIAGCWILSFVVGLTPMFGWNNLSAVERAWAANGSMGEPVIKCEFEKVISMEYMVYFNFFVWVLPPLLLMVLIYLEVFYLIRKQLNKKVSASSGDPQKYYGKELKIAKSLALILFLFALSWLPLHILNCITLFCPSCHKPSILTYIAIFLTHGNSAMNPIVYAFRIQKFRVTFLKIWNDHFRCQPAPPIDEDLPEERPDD
# Test: Radioligand binding assay, displacement of [3H]DPCPX
# Details: CHO cells expressing human adenosine A1 receptors; Ki ± SEM (n = 3); read-out: A1 Ki (displacement of specific [3H]DPCPX binding)
# Description: Radioligand Binding Studies [^3H]DPCPX was purchased from Amersham. All compounds made were tested in radioligand binding assays to determine their affinities at the human adenosine A1 receptor. The affinities at the A1 receptors were determined on CHO cells expressing the human receptors, using [^3H]DPCPX as the radioligand according to a previously described method.^9
# Data Analysis Competition binding data were fit to a single-site binding model and plotted using the software package Prism (Graph Pad, San Diego, Calif., USA). The Cheng-Prusoff equation Ki=IC50/(1+[I]/Kd) was used to calculate Ki values, where Ki is the affinity constant for the competing ligand, [I] is the concentration of the free radioligand, and Kd is the affinity constant for the radioligand.
row,SMILES,Ki [nM]
1,"O=C(Nc1cc(-c2ccccc2)nc(-c2ccccc2)n1)c1ccccc1 [Compound 13, N-(2,6-Diphenyl-pyrimidin-4-yl)-benzamide]",671 ± 113
2,"CC(=O)Nc1cc(-c2ccccc2)nc(-c2ccccc2)n1 [Compound 14, N-(2,6-Diphenyl-pyrimidin-4-yl)-acetamide]",37.5 ± 8.1
3,"CCC(=O)Nc1cc(-c2ccccc2)nc(-c2ccccc2)n1 [Compound 15, N-(2,6-Diphenyl-pyrimidin-4-yl)-propionamide]",9.5 ± 4.6
4,"CCCC(=O)Nc1cc(-c2ccccc2)nc(-c2ccccc2)n1 [Compound 16, N-(2,6-Diphenyl-pyrimidin-4-yl)-butyramide]",17.6 ± 5.3
5,"CC(C)CC(=O)Nc1cc(-c2ccccc2)nc(-c2ccccc2)n1 [Compound 18, N-(2,6-Diphenyl-pyrimidin-4-yl)-3-methyl-butyramide]",14.8 ± 2.7
6,"CC(C)(C)C(=O)Nc1cc(-c2ccccc2)nc(-c2ccccc2)n1 [Compound 21, N-(2,6-Diphenyl-pyrimidin-4-yl)-2,2-dimethyl-propionamide]",27.7 ± 6.2
7,"O=C(Nc1cc(-c2ccccc2)nc(-c2ccccc2)n1)C1CCCCC1 [Compound 25, Cyclohexanecarboxylic acid (2,6-diphenyl-pyrimidin-4-yl)-amide]",15.5 ± 8.4

# These reach a lower Ki. Values come first.
row,Ki [nM],SMILES
1,6.35 ± 0.4,"CCC(CC)C(=O)Nc1cc(-c2ccccc2)nc(-c2ccccc2)n1 [Compound 19, N-(2,6-Diphenyl-pyrimidin-4-yl)-2-ethyl-butyramide]"
2,2.22 ± 1.1,"CCC(C)C(=O)Nc1cc(-c2ccccc2)nc(-c2ccccc2)n1 (stereo not drawn) [Compound 20, N-(2,6-Diphenyl-pyrimidin-4-yl)-2-methyl-butyramide]"
3,8.75 ± 4.1,"CC(C)(C)CC(=O)Nc1cc(-c2ccccc2)nc(-c2ccccc2)n1 [Compound 22, N-(2,6-Diphenyl-pyrimidin-4-yl)-3,3-dimethyl-butyramide]"
4,6.49 ± 2.2,"O=C(Nc1cc(-c2ccccc2)nc(-c2ccccc2)n1)C1CCC1 [Compound 23, Cyclobutanecarboxylic acid (2,6-diphenyl-pyrimidin-4-yl)-amide]"
5,2.14 ± 0.07,"O=C(Nc1cc(-c2ccccc2)nc(-c2ccccc2)n1)C1CCCC1 [Compound 24, Cyclopentanecarboxylic acid (2,6-diphenyl-pyrimidin-4-yl)-amide]"
